Experimental data: ChEMBL document CHEMBL1201862, “PubChem BioAssay data set” (2004)
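Cells were grown in 96-well plates and exposed to each compound for 48 hours at five concentrations; endpoints were interpolated linearly between bracketing concentrations, or set to the highest concentration if not reached. The concentration for 50% growth inhibition is given as GI50.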 Activity calls are given as the source filed them. No stated cut-off is given here; in the data, active = GI50 up to about 1.1 µM and inactive = higher.

Legend:
Test in all cases: growth of human tumour cells (NCI), 48 h
[1] = tested on: 786-0
[2] = tested on: A498
[3] = tested on: A549
[4] = tested on: ACHN
[5] = tested on: CAKI-1
[6] = tested on: CCRF-CEM
[7] = tested on: COLO 205
[8] = tested on: DMS-114
[9] = tested on: DMS-273
[10] = tested on: EKVX
[11] = tested on: HCC 2998
[12] = tested on: HCT-116
[13] = tested on: HCT-15
[14] = tested on: HL-60
[15] = tested on: HOP-18
[16] = tested on: HOP-62
[17] = tested on: HOP-92
[18] = tested on: HT-29
[19] = tested on: IGROV-1
[20] = tested on: K562
[21] = tested on: KM-20L2
[22] = tested on: KM12
[23] = tested on: LOX IMVI
[24] = tested on: LXFL 529
[25] = tested on: M14
[26] = tested on: M19-MEL
[27] = tested on: MOLT-4
[28] = tested on: Malme-3M
[29] = tested on: NCI-H226
[30] = tested on: NCI-H23
[31] = tested on: NCI-H460
[32] = tested on: NCI-H522
[33] = tested on: OVCAR-3
[34] = tested on: OVCAR-4
[35] = tested on: OVCAR-5
[36] = tested on: OVCAR-8
[37] = tested on: RPMI-8226
[38] = tested on: RXF 393
[39] = tested on: SF-268
[40] = tested on: SF-295
[41] = tested on: SF-539
[42] = tested on: SK-MEL-28
[43] = tested on: SK-MEL-2
[44] = tested on: SK-MEL-5
[45] = tested on: SK-OV-3
[46] = tested on: SN12C
[47] = tested on: SNB-19
[48] = tested on: SNB-75
[49] = tested on: SNB-78
[50] = tested on: SW-620
[51] = tested on: TK-10
[52] = tested on: U-251
[53] = tested on: UACC-257
[54] = tested on: UACC-62
[55] = tested on: UO-31
[56] = tested on: DLD-1

Measured: GI50

CCOc1ccccc1NC(=O)C(=O)CC(=O)c1c(C)[n+]([O-])c2ccccc2[n+]1[O-]
67.1 µM: [13]
inactive: [1] > 100 µM | [2] > 100 µM | [3] > 100 µM | [4] > 100 µM | [5] > 100 µM | [6] 52.8 µM | [7] 35.2 µM | [8] > 100 µM | [9] > 100 µM | [10] > 100 µM | [11] > 100 µM | [12] > 100 µM | [14] > 100 µM | [15] 46.5 µM | [16] > 100 µM | [17] > 100 µM | [18] > 100 µM | [19] > 100 µM | [20] > 100 µM | [21] 75.7 µM | [22] 83.9 µM | [23] 99.3 µM | [24] > 100 µM | [25] > 100 µM | [26] 50.9 µM | [27] > 100 µM | [28] > 100 µM | [29] > 100 µM | [30] 65 µM | [31] 81.7 µM | [32] 84.5 µM | [33] 25.2 µM | [34] > 100 µM | [35] > 100 µM | [36] > 100 µM | [37] > 100 µM | [38] > 100 µM | [39] > 100 µM | [40] > 100 µM | [41] > 100 µM | [42] > 100 µM | [43] > 100 µM | [44] 43.9 µM | [45] > 100 µM | [46] > 100 µM | [47] 69.2 µM | [48] > 100 µM | [49] > 100 µM | [50] > 100 µM | [51] > 100 µM | [52] > 100 µM | [53] > 100 µM | [54] > 100 µM | [55] > 100 µM

Cn1c(=O)nc2n(-c3cccc(F)c3)c3ccccc3nc-2c1=O
16.6 µM: [13]
inactive: [1] 42 µM | [2] 39.9 µM | [3] 19 µM | [4] 8 µM | [5] 27.2 µM | [6] 19.4 µM | [7] 6.11 µM | [56] 25.3 µM | [9] 13.8 µM | [10] 13.8 µM | [11] 13.4 µM | [12] 23.6 µM | [15] 34.1 µM | [16] 53.2 µM | [18] 5.92 µM | [19] 26.8 µM | [20] 19.6 µM | [21] 12.3 µM | [22] 23.1 µM | [23] 18.1 µM | [24] 37.8 µM | [25] 18.7 µM | [26] 2.11 µM | [27] 23.1 µM | [28] 14.4 µM | [29] 29.6 µM | [30] 12.1 µM | [31] 11.6 µM | [32] 16.6 µM | [33] 3.57 µM | [34] 14.7 µM | [35] 33.7 µM | [36] 23.2 µM | [37] 20.5 µM | [38] 67.9 µM | [39] 43.3 µM | [40] 24.9 µM | [41] 25.4 µM | [43] 20.3 µM | [44] 14.2 µM | [45] > 100 µM | [46] 23.6 µM | [47] 21.9 µM | [48] 24.8 µM | [49] 23.5 µM | [50] 11.1 µM | [51] 31.6 µM | [52] 19.3 µM | [53] 12.8 µM | [54] 3.12 µM | [55] 52 µM
